From PubChem BioAssay AID2305 (GlaxoSmithKline (GSK), 2010)

Test system: P. falciparum 3D7 growth, pLDH absorbance
Assay: blood-stage malaria parasite growth potency – strain 3D7, dose response (AID 2305)

Row | Structure (SMILES) | IC50
1 | Clc1cccc(Nc2ccc3c(N4CCCCC4)ncnc3n2)c1 | 580 nM
2 | NC(N)=NC(=O)Nc1cc(Br)c(Cl)c(Br)c1 | 770 nM
3 | OCC1CCN(Cc2ccc(-c3ccc(-c4nc5ccc(C(F)(F)F)cc5[nH]4)s3)cc2)CC1 | 480 nM
4 | CN(C)CCN(C)Cc1ccc(-c2cccc(-c3nc4ccccc4[nH]3)c2)cc1 | 750 nM
5 | CCCCCC(C)C(C)c1cc(O)c2c3c(c(=O)oc2c1)CN(Cc1ccccc1)CC3 (configuration not stated) | 600 nM
6 | COc1cc(NC(=O)N2CCc3ccc(OCCN(C(C)C)C(C)C)cc32)cc(C(F)(F)F)c1 | 190 nM
7 | CN(C)C(=NCCCCCCN=C(NC(N)=NCc1ccc(Cl)c(Cl)c1)N(C)C)NC(N)=NCc1ccc(Cl)c(Cl)c1 | 300 nM
8 | COc1ccc(-c2cnc3[nH]cc(-c4ccncc4)c3c2)cc1OC | 130 nM
9 | CN(C)Cc1ccc(-c2cc3c(-c4ccc(CN(C)C)cc4)ccnc3[nH]2)cc1 | 890 nM
10 | CN(CCC(O)c1ccc(Cl)c(Cl)c1)C[C@H]1C[C@@H]1C(=O)c1ccccc1 (some centres not stated) | 790 nM
11 | COc1ccc2nccc([C@@H](O)CN3CCC(NCc4ccc5c(c4)N(C)C(=O)CO5)CC3)c2c1 | 750 nM
12 | O=S(=O)(c1ccc2cc[nH]c2c1)N1CCC[C@@H]1CCN1CCC(c2c[nH]c3cnccc23)CC1 | 1020 nM
13 | O=C(CCn1cncn1)N1CCCC(c2[nH]c3ccccc3c2-c2ccncc2)C1 (configuration not stated) | 800 nM
14 | Cc1ccc(NC(=S)NC2CCN(CCCCCNC(=O)/C=C/c3ccc(Cl)c(Cl)c3)CC2)cc1Cl | 990 nM
15 | CCCCc1cc(NCC)nc(Nc2cccc(OC)c2)n1 | 920 nM
16 | Cn1nc(-c2ccccc2F)c2cc(C(=O)Nc3cccnc3)sc21 | 810 nM
17 | CC1(C)[C@H]2CC[C@@H](CNc3nc(NCCc4cnc[nH]4)nc(Nc4ccc(Oc5ccccc5)cc4)n3)[C@@H]1C2 | 670 nM
18 | CCN(CC)c1ccc2nc(N)nc(N)c2c1 | 70 nM
19 | Cc1cc(N2CCCC2)nc(Nc2ccc(NC(=O)C(C)Oc3ccccc3)cc2)n1 (configuration not stated) | 1140 nM
20 | O=C(Nc1ccc(Cl)cc1F)NC1CCN(CCCCCNC(=O)[C@@H]2C[C@H]2c2ccc(Cl)c(Cl)c2)CC1 | 510 nM
21 | COc1cc2nc(N3CCC(CNC(=O)c4ccc(-c5ccc(C(F)(F)F)cc5)cc4)CC3)nc(N)c2cc1OC | 130 nM
22 | CN1CCN(CCCN(Cc2ccc(-c3cccc(CNC4CCCC4)c3)cc2)C(=O)/C=C/c2ccccc2)CC1 | 1330 nM
23 | Cc1cc(NC(=O)Nc2ccc3nc(C)oc3c2)c2cc(Cl)ccc2n1 | 1120 nM
24 | CNC(=O)c1ccccc1Nc1nc(Nc2ccc(C(=O)O)cc2)ncc1Cl | 950 nM
25 | CN(C)C(=O)CN1CCN(c2ncnc(N3CCc4c([nH]c5ccccc45)[C@@H]3c3ccc4c(c3)CCO4)n2)CC1 | 870 nM

Row | Structure (SMILES) | IC50
26 | COc1ccc(NC(=O)c2ccc(C=Cc3ccc(C(F)(F)F)cc3)cc2)cc1N1CCN(C)CC1 | 420 nM
27 | COc1cc(-c2nc(-c3ccccc3)c(-c3ccccc3)[nH]2)cc(OC)c1O | 770 nM
28 | O=C(Nc1nc2cc(S(=O)(=O)NCCc3cccc(F)c3)ccc2n1CCCn1ccnc1)c1ccc(Cl)cc1 | 1270 nM
29 | CCCc1ccc(NC(=O)c2cccc(CN3CCCN(Cc4cccc(C#N)c4)CC3)c2)cc1 | 980 nM
30 | Cc1ccc(CN2CCCN(Cc3cccc(C(=O)Nc4ccc(C(C)(C)C)cc4)c3)CC2)s1 | 1130 nM
31 | Cc1onc(-c2ccccc2)c1-c1nc(NCc2ccccc2Cl)no1 | 700 nM
32 | Cc1cccc2[nH]c(-c3cccc(-c4ccc(C(=O)N5CCCCC5C(C)O)cc4)c3)nc12 (configuration not stated) | 370 nM
33 | COc1ccc2nc(C)cc(NN=Cc3ccccc3Cl)c2c1 | 600 nM
34 | CCCC[C@@H](C(=O)NCc1ccccc1C(F)(F)F)N1C(=O)CCC1C(=O)Nc1ccc([N+](=O)[O-])cc1 (some centres not stated) | 850 nM
35 | COc1cccc(C2=CC(c3ccccc3)n3ncc(C(=O)Nc4ccc(Cl)cc4)c3N2)c1 (configuration not stated) | 1060 nM
36 | COc1ccc(C[C@@H](C)NC[C@H](O)c2cccc(Cl)c2)cc1F | 870 nM
37 | O=C(/C=C/c1ccc(Cl)cc1Cl)NC1CCC(CN2CCC(c3c[nH]c4ccccc34)CC2)CC1 (configuration not stated) | 800 nM
38 | Cc1ccc(CN2CCCN(Cc3cccc(NC(=O)c4ccc(Cl)c(Cl)c4)c3)CC2)cc1 | 900 nM
39 | CCC(C)NS(=O)(=O)c1ccc2nc(Nc3ccc(C)c(Cl)c3)n(C3CCCCC3)c2c1 (configuration not stated) | 510 nM
40 | CCOC(=O)c1c(CCc2ccc(C(F)(F)F)cc2)nc2c(c1-c1ccc(C(=O)N[C@@H](C)c3ccncc3)cc1)C(=O)N1CCC[C@@H]21 | 920 nM
41 | N#Cc1ccc(N[C@@H](CC2CCCCC2)C(=O)N[C@@H]2CCCc3ccccc32)c2ccccc12 | 730 nM
42 | CS(=O)(=O)N(CC(O)Cn1c2ccc(Cl)cc2c2cc(Cl)ccc21)c1ccccc1 (configuration not stated) | 900 nM
43 | CC(C)(C)OC(=O)C1CCCN(Cc2ccc(-c3cccc(-c4nc5ccccc5[nH]4)c3)cc2)C1 (configuration not stated) | 360 nM
44 | COc1ccc(-c2ccc(NC(=O)c3cccc(C#N)c3)cc2)cc1CN1CCC(O)CC1 | 820 nM
45 | COC(=O)CCCOc1cc(Cc2cnc(N)nc2N)cc(OC)c1OC | 770 nM
46 | O=C(NCCCN1CCCC1=O)c1cnc(N2CCC(Oc3ccccc3)CC2)c(Cl)c1 | 300 nM
47 | O=C(Nc1ccc(Br)c(Cl)c1)c1cc([N+](=O)[O-])cc2cn[nH]c12 | 1060 nM
48 | Cc1cc(=O)[nH]c2cc(Nc3ccnc(Nc4cccc(C(N)=O)c4)n3)ccc12 | 1520 nM
49 | CCn1cc(CN2CCCC(C(=O)Nc3ccc(-c4nc5ccccc5[nH]4)cc3)C2)cn1 (configuration not stated) | 930 nM
50 | COc1ccc(NC(=S)NC(NC(=O)CF)C(Cl)(Cl)Cl)cc1[N+](=O)[O-] (configuration not stated) | 480 nM

Row | Structure (SMILES) | IC50
51 | CC12CN3CC(C)(CN(C1)C3c1cc(Br)ccc1O)C2O (configuration not stated) | 230 nM
52 | COc1ccccc1CNC(=O)c1nn(-c2ccc(Cl)cc2)c(=O)c2ccccc12 | 290 nM
53 | Clc1cc(Nc2ncnc3sc(C#C[C@H]4CCCN4)cc23)ccc1OCc1cccnc1Cl | 570 nM
54 | CCCCc1ccc(C(=O)Nc2ccc3nc(N4CCN(C)CC4)cc(C)c3c2)cc1 | 1100 nM
55 | COc1cccc(Nc2nc(Nc3cccc(C#N)c3)cc(-c3ccncc3)n2)c1 | 760 nM
56 | Oc1c(C(Nc2ccccn2)c2ccco2)cc(Cl)c2cccnc12 (configuration not stated) | 1010 nM
57 | CCCCCCCCNCC(O)c1ccc(Cl)c(Cl)c1 (configuration not stated) | 820 nM
58 | NCC(=O)NC12CC3CC(CC(C3)C1)C2 | 1200 nM
59 | COc1ccc(-c2cccc(NC(=O)c3ccc(Cl)cc3)c2)cc1CN1CCCC1 | 780 nM
60 | COc1cc2c(C3CCN(CC4CCC(NC(=O)/C=C/c5ccc(Cl)c(Cl)c5)CC4)CC3)c[nH]c2cn1 (configuration not stated) | 420 nM
61 | O=C(Nc1ccc(Cl)c(-c2nc3ccccc3[nH]2)c1)c1ccc(-c2ccc(Cl)cc2)o1 | 790 nM
62 | COc1ccc2[nH]cc(C3C[C@H]4CC[C@@H](C3)N4CCC3CCN(C(=O)/C=C/c4ccc(Cl)c(Cl)c4)CC3)c2c1 (some centres not stated) | 620 nM
63 | COc1ccc(CNCc2ccc(F)cc2)cc1-c1ccc(S(=O)(=O)NCCN2CCCC2)cc1 | 1040 nM
64 | CC(C)C[C@H](NC(=O)c1ccc(F)cc1)C(=O)N[C@H](/C=N/NC(=O)c1ccccc1)CCc1ccccc1 | 810 nM
65 | COc1ccc(N2CCN(CCCCNC(=O)c3ccc(NC(=O)c4ccc(C(F)(F)F)cc4)cc3)CC2)c(OC)c1 | 590 nM
66 | CC(C)CNCc1ccc(-c2ccccc2CNC2CCN(Cc3ccccc3)CC2)cc1 | 570 nM
67 | O=C(Nc1ccc(F)c([N+](=O)[O-])c1)Nc1cc(C(F)(F)F)ccc1Cl | 860 nM
68 | O=C(NC1CCC(CN2CCC(c3c[nH]c4ccccc34)CC2)CC1)c1cc(-c2cccc(Cl)c2)n(-c2ccc(Cl)cc2Cl)n1 (configuration not stated) | 1080 nM
69 | Cc1cc(N2CCCC2)nc(Nc2ccc(NC(=O)CC(C)C)cc2)n1 | 840 nM
70 | CC1(C)N=C(NC(=O)c2ccc([N+](=O)[O-])cc2)N=C(N)N1OCc1ccc2ccccc2c1 | 10 nM
71 | Cn1nccc1C(=O)NCCNCc1cccc(-c2ccc(-c3nc4ccc(C(F)(F)F)cc4[nH]3)s2)c1 | 150 nM
72 | Cc1cnc(-c2cccc(C(=O)NC3CCC(CCN4CCc5ccc(C#N)cc5CC4)CC3)c2)[nH]1 (configuration not stated) | 300 nM
73 | Oc1ccc2[nH]c(-c3cccs3)nc2c1CN1CCC(O)(c2ccccc2)CC1 | 780 nM
74 | CCN(CCCN1CCCCC1)c1cc(C)nc(Nc2cc(Br)ccc2C)n1 | 410 nM
75 | COc1cc(Cc2cnc(N)nc2N)cc(OCCCCC#N)c1OC | 1040 nM

Row | Structure (SMILES) | IC50
76 | CC(C)(C)CNCC(C)(C)c1nc(-c2ccc(Cl)c(O)c2)c(-c2ccncc2)[nH]1 | 600 nM
77 | COc1ccc(OC(C)CNC(=O)c2cc([N+](=O)[O-])ccc2-c2ccc(OC)cc2)cc1 (configuration not stated) | 1150 nM
78 | CCCC(CNCc1cccc(C)c1)CNc1cc(=O)c2ccccc2[nH]1 (configuration not stated) | 630 nM
79 | O=C(NC1CC1)c1cnc(N2CCC(OCc3ccccc3)CC2)c(Cl)c1 | 1400 nM
80 | Cc1cccc(Cl)c1Nc1nnc(-c2cccc(C(=O)NC[C@@H]3CC[C@H]4C[C@@H]3C4(C)C)c2)o1 | 270 nM
81 | Cc1ccc(O)cc1C[C@@H]1C(=O)CC[C@@]2(C)[C@H]1CC[C@]2(C)O | 960 nM
82 | O=[N+]([O-])c1cccc(CNCC2CCN(CCc3ccccc3)CC2)c1 | 780 nM
83 | CCOc1ccc2nc(C)cc(NN=Cc3cccc(C)n3)c2c1 | 750 nM
84 | O=C(Nc1cccc(CN2CCCN(Cc3ccc(F)cc3)CC2)c1)c1ccc(Cl)c(Cl)c1 | 960 nM
85 | O=C(/C=C/C=C/c1ccccc1)NC1CCC(CN2CCC(c3c[nH]c4ccccc34)CC2)CC1 (configuration not stated) | 870 nM
86 | CCCN(CCC)CCCN(CCCN(CCC)CCC)c1cc(C)nc(Nc2ccc3cc(Br)ccc3c2)n1 | 210 nM
87 | CCCCCCCN1CC[C@@H](CCCc2ccnc3ccc(OCCN4CCOCC4)cc23)[C@@H](CC)C1 | 910 nM
88 | CN(C)CCOc1ccc2c(c1)CN(C)CC2c1ccccc1 (configuration not stated) | 1110 nM
89 | CCCCCCN(CCCCCC)CC(O)c1c(OC)ccc2ccccc12 (configuration not stated) | 570 nM
90 | Cc1ccc2c(=O)n(C)c(=O)n(C)c2n1 | 820 nM
91 | CCOC(=O)N1NC(=O)N(c2ccccc2)C1(c1ccccc1)c1ccccc1 | 700 nM
92 | O=[N+]([O-])c1ccc2nc(Nc3ccc(Cl)c(Cl)c3)c(Nc3ccc(Cl)c(Cl)c3)nc2c1 | 790 nM
93 | COc1ccc2nccc(N3CCN(CCNCc4ccc5c(n4)NC(=O)CO5)CC3)c2n1 | 880 nM
94 | O=C(/C=C/c1ccc(Cl)c(Cl)c1)N1CCC(CN2CCC(c3c(-c4ccccc4)[nH]c4ccccc34)CC2)CC1 | 340 nM
95 | Cc1c(N=O)cc(C(C)(C)C)c(O)c1C(=O)Nc1ccc([N+](=O)[O-])cc1Cl | 770 nM
96 | O=C(/C=C/c1ccc(Cl)c(Cl)c1)NCCCCCN1CCCC(CNS(=O)(=O)c2cccc(C(F)(F)F)c2)C1 (configuration not stated) | 950 nM
97 | COc1cc2ccccc2c(CNCCCCCCNCc2c(OC)c(OC)cc3ccccc23)c1OC | 1110 nM
